Results taken from ChEMBL document CHEMBL1136351, “Synthesis and DNA-binding affinity of A-C8/C-C2 alkoxyamido-linked pyrrolo[2,1-c][1,4]benzodiazepine dimers” (Bioorg Med Chem Lett, 2003).

Tests used:
Format in all cases: functional
Settings in all cases: Bos taurus
[1] = system: Nucleic Acid; assay: Thermal denaturation in calf thymus DNA after incubation at 37 degrees C for 0h at PBD/DNA 1:5 molar ratio
[2] = system: Nucleic Acid; assay: Thermal denaturation in calf thymus DNA after incubation at 37 degree C for 18 hr at PBD/DNA 1:5 molar ratio
[3] = system: Nucleic Acid; assay: Thermal denaturation in calf thymus DNA after incubation at 37 degrees C for 18 hr at PBD/DNA 1:5 molar ratio
[4] = system: Nucleic Acid; assay: Thermal denaturation in calf thymus DNA after incubation at 37 degrees C Centigrade for 18 hr at PBD/DNA 1:5 molar ratio

With `COc1cc2c(cc1O)N=C[C@@H]1CCCN1C2=O` the ΔTm [1] was 0.3 °C and the ΔTm [2] was 0.7 °C.

In the case of `COc1cc2c(cc1OCCCC(=O)N[C@H]1C[C@H]3C=Nc4cc(OCc5ccccc5)c(OC)cc4C(=O)N3C1)N=C[C@@H]1CCCN1C2=O`, the ΔTm [1] is reported as 3.7 °C and the ΔTm [3] is reported as 9.3 °C.

Compound `COc1cc2c(cc1OCC(=O)N[C@H]1C[C@H]3C=Nc4cc(OCc5ccccc5)c(OC)cc4C(=O)N3C1)N=C[C@@H]1CCCN1C2=O` has a ΔTm [1] of 0.9 °C and a ΔTm [4] of 4.7 °C.

`COc1cc2c(cc1OCCCCC(=O)N[C@H]1C[C@H]3C=Nc4cc(OCc5ccccc5)c(OC)cc4C(=O)N3C1)N=C[C@@H]1CCCN1C2=O` gave a ΔTm [1] of 6.1 °C and a ΔTm [3] of 10.9 °C.
